Measured values: patent US9695155B2, “Herbicidal substituted pyrimidinyloxy benzene compounds” (E. I. DU PONT DE NEMOURS AND COMPANY, priority 2013, dated 2017)

Tests used:
wild buckwheat = assay: Test D preemergence; assay type: in vivo, Polygonum convolvulus; details: Fallopia convolvulus, pre-emergence; for pest or weed control at 16 g/ha: 16 g ai/ha, scale 0 (no effect) to 100 (complete control), read-out: Plant response rating, Buckwheat, Wild; for pest or weed control at 31 g/ha: 31 g ai/ha; for pest or weed control at 31 g/ha / pest or weed control at 62 g/ha / pest or weed control at 125 g/ha / pest or weed control at 250 g/ha: scale 0-100, read-out: Plant response rating, Buckwheat, Wild; for pest or weed control at 62 g/ha: 62 g ai/ha; for pest or weed control at 125 g/ha: 125 g ai/ha; for pest or weed control at 250 g/ha: 250 g ai/ha
From the text: Seeds of plant species selected from bluegrass (annual bluegrass, Poa annua), blackgrass (Alopecurus myosuroides), canarygrass (littleseed canarygrass, Phalaris minor), chickweed (common chickweed, Stellaria media), galium (catchweed bedstraw, Galium aparine), bromegrass, downy (downy bromegrass, Bromus tectorum), field poppy (Papaver rhoeas), field violet (Viola arvensis), green foxtail (Setaria viridis), deadnettle (henbit deadnettle, Lamium amplexicaule), Italian ryegrass (Lolium multiflorum), kochia (Kochia scoparia), lambsquarters (Chenopodium album), oilseed rape (Brassica napus), pigweed (Amaranthus retroflexus), chamomile (scentless chamomile, Matricaria inodora), Russian thistle (Salsola kali), speedwell (bird's-eye speedwell, Veronica persica), spring barley (Hordeum vulgare), spring wheat (Triticum aestivum), wild buckwheat (Polygonum convolvulus), wild mustard (Sinapis arvensis), wild oat (Avena fatua), wild radish (Raphanus raphanistrum), windgrass (Apera spica-venti), winter barley (Hordeum vulgare), and winter wheat (Triticum aestivum) were planted into a silt loam soil and treated preemergence with test chemicals formulated in a non-phytotoxic solvent mixture which included a surfactant.
At the same time, these species were planted in pots containing Redi-Earth® planting medium (Scotts Company, 14111 Scottslawn Road, Marysville, Ohio 43041) comprising spaghnum peat moss, vermiculite, wetting agent and starter nutrients and treated with postemergence applications of the test chemicals formulated in the same manner. Plants ranged in height from 2 to 18 cm (1- to 4-leaf stage). Treated plants and controls were maintained in a controlled growth environment for 7 to 21 days after which time all species were compared to controls and visually evaluated. Plant response ratings, summarized in Table D, are based on a scale of 0 to 100 where 0 is no effect and 100 is complete control. A dash (-) response means no test result.

ragweed [1] = assay: Test E preemergence; assay type: in vivo, Ambrosia elatior; details: for Ragweed plant response rating: scale 0 to 100 (0 no effect, 100 complete control); for Plant response rating, Ragweed: scale 0 to 100, 0 no effect, 100 complete control
In short: (§1)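 Test chemicals formulated in a non-phytotoxic solvent mixture containing a surfactant were applied preemergence to seeds in silt loam soil or postemergence to plants at the 1- to 4-leaf stage in potting mix. After 14 to 21 days in a greenhouse, injury was visually rated against controls on a 0-100 scale (0 = no effect, 100 = complete control).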

large (Lg) crabgrass = assay: Test E preemergence; assay type: in vivo, Digitaria sanguinalis; details: for Crabgrass, Large plant response rating: scale 0 to 100 (0 no effect, 100 complete control); for Plant response rating, Crabgrass, Large: scale 0 to 100, 0 no effect, 100 complete control
In short: as §1

yellow nutsedge = assay: Test E preemergence; assay type: in vivo, Cyperus esculentus; details: for Nutsedge, Yellow plant response rating: scale 0 to 100 (0 no effect, 100 complete control); for Plant response rating, Nutsedge, Yellow: scale 0 to 100, 0 no effect, 100 complete control
In short: as §1

barnyardgrass = assay: Test E preemergence; assay type: in vivo, Echinochloa crus-galli; details: for Barnyardgrass plant response rating: scale 0 to 100 (0 no effect, 100 complete control); for Plant response rating, Barnyardgrass: scale 0 to 100, 0 no effect, 100 complete control
In short: as §1

green foxtail = assay: Test E preemergence; assay type: in vivo, Setaria viridis; details: for Foxtail, Green plant response rating: scale 0 to 100 (0 no effect, 100 complete control); for Plant response rating, Foxtail, Green: scale 0 to 100, 0 no effect, 100 complete control
In short: as §1

Italian ryegrass = assay: Test A preemergence; assay type: in vivo, Lolium multiflorum; details: 0 to 100 scale where 0 is no effect and 100 is complete control
In short: (§2)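 Visual injury scored 0–100 (100 = complete control) against untreated controls about 10 days after treatment in a greenhouse. Test chemicals, formulated with surfactant in non-phytotoxic solvent, were sprayed on soil preemergence or on 2-10 cm, one- to two-leaf plants postemergence.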

ragweed [2] = assay: Test A preemergence; assay type: in vivo, Ambrosia elatior; details: 0 to 100 scale where 0 is no effect and 100 is complete control
In short: as §2

kochia = assay: Test A preemergence; assay type: in vivo, Kochia scoparia; details: 0 to 100 scale where 0 is no effect and 100 is complete control
In short: as §2

blackgrass = assay: Test A postemergence; assay type: in vivo, Alopecurus myosuroides; details: 0 to 100 scale where 0 is no effect and 100 is complete control
In short: as §2

Compound | pest or weed control at 31 g/ha (wild buckwheat) [%] | pest or weed control at 62 g/ha (wild buckwheat) [%] | pest or weed control at 125 g/ha (wild buckwheat) [%] | Ragweed plant response rating (ragweed [1]; 16 g ai/ha) | Ragweed plant response rating (ragweed [1]; 31 g ai/ha) | Ragweed plant response rating (ragweed [1]; 62 g ai/ha) | Plant response rating, Ragweed (ragweed [1]; 125 g ai/ha) | Crabgrass, Large plant response rating (large (Lg) crabgrass; 16 g ai/ha) | Crabgrass, Large plant response rating (large (Lg) crabgrass; 31 g ai/ha) | Crabgrass, Large plant response rating (large (Lg) crabgrass; 62 g ai/ha) | Plant response rating, Crabgrass, Large (large (Lg) crabgrass; 125 g ai/ha) | Nutsedge, Yellow plant response rating (yellow nutsedge; 16 g ai/ha) | Nutsedge, Yellow plant response rating (yellow nutsedge; 31 g ai/ha) | Nutsedge, Yellow plant response rating (yellow nutsedge; 62 g ai/ha) | Plant response rating, Nutsedge, Yellow (yellow nutsedge; 125 g ai/ha) | Barnyardgrass plant response rating (barnyardgrass; 16 g ai/ha, preemergence) | Barnyardgrass plant response rating (barnyardgrass; 31 g ai/ha, preemergence) | Plant response rating, Barnyardgrass (barnyardgrass; preemergence, 125 g ai/ha) | Foxtail, Green plant response rating (green foxtail; 16 g ai/ha) | Foxtail, Green plant response rating (green foxtail; 31 g ai/ha) | also measured
FC(F)(F)c1cnn(-c2ccccc2Oc2ncc(Br)cn2)c1 [Compound 18, 5-bromo-2-[2-[4-(trifluoromethyl)-1H-pyrazol-1-yl]phenoxy]pyrimidine] | 70 | 80 | 100 | 0 | 0 | 0 | 0 | 0 | 0 | 40 | 100 | 0 | 0 | 0 | 0 | 0 | 0 | 5 | 0 | 0 | pest or weed control at 16 g/ha (wild buckwheat): 10%; pest or weed control at 250 g/ha (wild buckwheat): 100%; Plant response rating, Ragweed (ragweed [1]; 250 g ai/ha): 0; Plant response rating, Crabgrass, Large (large (Lg) crabgrass; 250 g ai/ha): 100; Plant response rating, Nutsedge, Yellow (yellow nutsedge; 250 g ai/ha): 10; Plant response rating, Barnyardgrass (barnyardgrass; Preemergence, 62 g ai/ha): 0; Plant response rating, Barnyardgrass (barnyardgrass; preemergence, 250 g ai/ha): 20; Foxtail, Green plant response rating (green foxtail; 62 g ai/ha): 65; Plant response rating, Foxtail, Green (green foxtail; 125 g ai/ha): 100; Plant response rating, Foxtail, Green (green foxtail; 250 g ai/ha): 100
N#Cc1cccc(Oc2ncc(Cl)cn2)c1-n1cc(C(F)(F)F)cn1 [Compound 58, 3-[(5-chloro-2-pyrimidinyl)oxy]-2-[4-(trifluoromethyl)-1H-pyrazol-1-yl]benzonitrile] | 100 | 100 | 100 | 0 | 0 | 5 | 50 | 75 | 100 | 100 | 100 | 0 | 5 | 25 | 60 | 20 | 40 | 95 | 65 | 95 | pest or weed control at 250 g/ha (wild buckwheat): 100%; Plant response rating, Ragweed (ragweed [1]; 250 g ai/ha): 85; Plant response rating, Crabgrass, Large (large (Lg) crabgrass; 250 g ai/ha): 100; Plant response rating, Nutsedge, Yellow (yellow nutsedge; 250 g ai/ha): 80; Plant response rating, Barnyardgrass (barnyardgrass; Preemergence, 62 g ai/ha): 90; Plant response rating, Barnyardgrass (barnyardgrass; preemergence, 250 g ai/ha): 98; Foxtail, Green plant response rating (green foxtail; 62 g ai/ha): 100; Plant response rating, Foxtail, Green (green foxtail; 125 g ai/ha): 100; Plant response rating, Foxtail, Green (green foxtail; 250 g ai/ha): 100
N#Cc1cccc(Oc2ncc(Br)cn2)c1-n1cc(C(F)(F)F)cn1 [Compound 59, 3-[(5-bromo-2-pyrimidinyl)oxy]-2-[4-(trifluoromethyl)-1H-pyrazol-1-yl]benzonitrile] | 60 | 100 | 100 | 0 | 0 | 0 | 5 | 5 | 95 | 100 | 100 | 0 | 0 | 0 | 30 | 0 | 20 | 75 | 0 | 60 | pest or weed control at 250 g/ha (wild buckwheat): 100%; Plant response rating, Ragweed (ragweed [1]; 250 g ai/ha): 50; Plant response rating, Crabgrass, Large (large (Lg) crabgrass; 250 g ai/ha): 100; Plant response rating, Nutsedge, Yellow (yellow nutsedge; 250 g ai/ha): 50; Plant response rating, Barnyardgrass (barnyardgrass; Preemergence, 62 g ai/ha): 50; Plant response rating, Barnyardgrass (barnyardgrass; preemergence, 250 g ai/ha): 95; Foxtail, Green plant response rating (green foxtail; 62 g ai/ha): 100; Plant response rating, Foxtail, Green (green foxtail; 125 g ai/ha): 100; Plant response rating, Foxtail, Green (green foxtail; 250 g ai/ha): 100
FC(F)(F)COc1cnn(-c2ccccc2Oc2ncc(Cl)cn2)c1 [Compound 138, 5-chloro-2-[2-[4-(2,2,2-trifluoroethoxy)-1H-pyrazol-1-yl]phenoxy]pyrimidine] | 35 | 55 | 75 | 0 | 0 | 0 | 0 | 0 | 70 | 98 | 100 | 0 | 10 | 15 | 40 | 0 | 0 | 60 | 0 | 0 | pest or weed control at 16 g/ha (wild buckwheat): 60%; Plant response rating, Ryegrass, Italian (Italian ryegrass; 125 g ai/ha): 0; Ryegrass, Italian plant response rating (Italian ryegrass; 500 g ai/ha): 50; Plant response rating, Ragweed (ragweed [2]; 125 g ai/ha): 30; Ragweed plant response rating (ragweed [2]; 500 g ai/ha): 60; Plant response rating, Kochia (kochia; 125 g ai/ha): 90; Kochia plant response rating (kochia; 500 g ai/ha): 100; Blackgrass plant response rating (blackgrass; 125 g ai/ha): 50; Plant response rating, Blackgrass (blackgrass; 500 g ai/ha): 90; Barnyardgrass plant response rating (barnyardgrass; 62 g ai/ha, preemergence): 15; Foxtail, Green plant response rating (green foxtail; 62 g ai/ha): 20; Plant response rating, Foxtail, Green (green foxtail; 125 g ai/ha): 98
